Tested on: Hs700T human pancreatic adenocarcinoma cells
Test: Subcutaneous model of human pancreatic adenocarcinoma
Type: in vivo, NCR.nu/nu homozygous mice
Conditions: 5FU 35 mg/kg intraperitoneally, once weekly for 4 treatments
Experimental: This study was designed to test the dose-responsive anti-tumor data for an anti-LUCA2 antibody in a subcutaneous model of pancreatic cancer. Fluorouracil (5FU), a cytotoxic chemotherapy agent, was used as a positive control and tested to see if there was a cumulative effect with mu-anti-LUCA2 and 5FU.
Cultured Hs700T human pancreatic adenocarcinoma cells were trypsinized, washed in media, spun down and resuspended in media at 100 million cells per milliliter of media (5 million cells per 0.05 mL volume), then mixed in an equal volume of Matrigel® for a final injection volume of 0.1 mL. 72 NCR.nu/nu homozygous mice were dosed intraperitoneally during the study. The groups were (1) saline control at 0.2 mL, twice weekly for 10 treatments (2) mu-anti-LUCA2 antibody at 50 mg/kg, twice weekly for 10 treatments, (3) Fluorouracil (5FU) at 35 mg/kg, once weekly for 4 treatments, and (4) mu-anti-LUCA2 antibody at 50 mg/kg and 5FU at 35 mg/kg, twice weekly for 10 treatments.
Tumor growth over time was evaluated to determine anti-tumor activity. Tumors were palpable prior to initiation of therapy. Animals responding to antibody treatment were maintained after treatment cessation to determine time to tumor regrowth.

## O=c1[nH]cc(F)c(=O)[nH]1 [5FU, Fluorouracil]
  tumor volume inhibition compared to saline control: approximately 21.5%

Reference: patent US7847070B2, “LUCA2 and antibodies that bind thereto” (Raven biotechnologies, inc., priority 2005, dated 2010)
